{
  "source": "patent US5602125A",
  "about": "“Thienodiazepine derivatives as cholecystokinin and gastrin antagonists” (Merck, Sharp & Dohme, Ltd., priority 1992, dated 1997)",
  "key": {"[1]": {"target": "T1, CCK-A (Rattus norvegicus, UniProt P30551)", "T1 construct": "^125 I-CCK from rat pancreas (CCK-A); from tissue; host or cells: rat pancreas", "T1 sequence (P30551 1-444)": "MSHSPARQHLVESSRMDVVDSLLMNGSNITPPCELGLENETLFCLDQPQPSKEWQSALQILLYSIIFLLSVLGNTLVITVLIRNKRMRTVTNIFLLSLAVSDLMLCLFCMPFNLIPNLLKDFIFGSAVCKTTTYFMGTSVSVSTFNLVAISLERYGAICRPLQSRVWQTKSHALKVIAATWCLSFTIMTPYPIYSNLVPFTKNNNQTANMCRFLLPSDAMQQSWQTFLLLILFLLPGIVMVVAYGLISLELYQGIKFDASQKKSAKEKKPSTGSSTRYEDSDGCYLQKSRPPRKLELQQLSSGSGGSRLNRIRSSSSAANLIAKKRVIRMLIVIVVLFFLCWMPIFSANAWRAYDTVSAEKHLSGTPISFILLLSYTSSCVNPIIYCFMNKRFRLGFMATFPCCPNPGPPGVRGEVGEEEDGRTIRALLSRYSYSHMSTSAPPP", "assay": "displacement of 125I-CCK from rat pancreas (CCK-A)", "conditions": "50% displacement of specific 125I-CCK, read-out: CCK receptor binding IC50, 125I-CCK Pancreas", "procedure": "(§1) The CCK-A and CCK-B antagonising activity of the compounds described herein was evaluated using the assays described in published European patent application no. 0514133. The method essentially involves determining the concentration of the test compound required to displace 50% of the specific ^125 I-CCK from rat pancreas (CCK-A) or guinea pig brain (CCK-B). The data in Table 1 were obtained for the compound of Example 1."}, "[2]": {"target": "T2, CCK-B (Cavia porcellus, UniProt H0VZC5)", "T2 construct": "guinea pig brain (CCK-B); from tissue; host or cells: guinea pig brain", "T2 sequence (H0VZC5 entry or part of it)": "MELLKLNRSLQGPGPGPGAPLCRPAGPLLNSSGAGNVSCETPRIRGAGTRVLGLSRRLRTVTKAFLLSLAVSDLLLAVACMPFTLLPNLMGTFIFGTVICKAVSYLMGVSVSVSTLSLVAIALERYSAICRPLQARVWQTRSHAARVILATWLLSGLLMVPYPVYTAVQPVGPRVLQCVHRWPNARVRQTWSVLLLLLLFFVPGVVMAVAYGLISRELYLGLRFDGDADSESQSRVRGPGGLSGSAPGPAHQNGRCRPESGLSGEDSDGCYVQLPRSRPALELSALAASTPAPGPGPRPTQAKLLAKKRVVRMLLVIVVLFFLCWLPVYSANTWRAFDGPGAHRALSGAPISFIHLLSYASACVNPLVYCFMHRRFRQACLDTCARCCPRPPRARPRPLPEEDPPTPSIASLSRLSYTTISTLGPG", "assay": "displacement of 125I-CCK from guinea pig brain (CCK-B)", "assay_type": "binding", "procedure": "as §1"}},
  "data": [
    {"smiles": "Cc1cccc(NC(=O)NC2N=C(C3CCCCC3)c3ccsc3N(C)C2=O)c1", "note": "(racemic) [Example 1, N-[3(R,S)-5-cyclohexyl-2,3-dihydro-1-methyl-2-oxo-1H-1,4-thienodiazepine-3-yl]-N'-(3-methylphenyl) urea]", "values": [
      {"measurement": "IC50", "setting": "[1]", "value": 6.7, "unit": "nM"},
      {"measurement": "IC50", "setting": "[2]", "value": 46, "unit": "nM"}
    ]}
  ]
}
